Experimental data as given in patent US20250002954A1, “Novel Compound, Use Thereof, and Method for Producing Same, and Compound-Containing Composition, Method for Producing 4-Trehalosamine, and Microorganism” (Microbial Chemistry Research Foundation, priority 2021, published 2025).

Tests used:
Bacillus subtilis 168 = experiment: Evaluation of Bacillus subtilis protective activity in freeze-dried condition; type: cell-based; conditions: for Numbers of live bacterial cells (relative numbers): Bacillus subtilis freeze-dried with 6% aqueous solution (final concentration 3%), test sample 3 (FD) = 1
Protocol: Using test samples 1 to 5 containing Bacillus subtilis prepared in the following manner, microorganism-protective activity with trehalose or 4-trehalosamine in a freeze-dried condition was evaluated.
Frozen stock of Bacillus subtilis (Bacillus subtilis 168 (obtained from ATCC)) was inoculated in 10 mL of Luria-Bertani (LB) culture medium (manufactured by Difco) and cultured at 37° C. for 24 hours while shaking it at 220 rpm. After culture, it was centrifuged at 3,000×g for 5 minutes, washed once with 10 mL of water, and then suspended in 10 mL of water, thus obtaining Bacillus subtilis suspension. 50 μL of water was added to and mixed with 50 μL of this Bacillus subtilis suspension, and the mixture was left to stand at 4° C. for 20 hours, preparing control (NF).
After Bacillus subtilis suspension was prepared in a similar manner to test sample 1, 50 μL of 6% aqueous solution of trehalose was added to and mixed with 50 µL of the Bacillus subtilis suspension, and the mixture was frozen at −80° C. for 10 minutes. It was then freeze-dried for 20 hours with a freeze dryer (FLEXI-DRY, manufactured by FTS systems INC., Warminster) connected to a vacuum pump (P65D, manufactured by PHIL Sato Vac INC.), preparing freeze-dried product (TRH) of Bacillus subtilis with TRH.
Freeze-dried product (4TA) of Bacillus subtilis with 4TA was obtained in a similar manner to the preparation method of test sample 4 except that trehalose was changed to 4-trehalosamine (4TA) in the preparation method of test sample 4.
For test samples 1 and 2, serial suspensions were made by diluting them to 1/10 with water. 100 μL of water was added to each of the freeze-dried products of test samples 3 to 5 and diluted to 1/10 with water to make their serial suspensions. […]
Wells in which the number of colonies was measurable were selected and the numbers (relative numbers) of live bacterial cells per well on test samples 1, 2, 4, and 5 when the number of live bacterial cells per well on test sample 3 (FD) was “1” were calculated in consideration of the dilution concentrations of those test samples.

blood glucose level = experiment: Change in blood glucose level after oral administration to mice; type: in vivo, ICR mice; conditions: single oral dose 0.5 mg per g of body weight, fasted
Protocol: 4-trehalosamine or trehalose dissolved in saline at 0.5 mg/10 μL per g of body weight was orally administered in a single dose to ICR mice (9-week to 10-week old, female, n=5) that had been fasted overnight. The five mice on which the same treatment had been performed were placed in the same cage.
In a 96-well plate, the centrifuged supernatant sample of dilution of blood with methanol prepared in <Determination of blood level of 4-trehalosamine> (a sample similar to the sample used in the LC-MS analysis) was placed at 5 µL/well and dried by suction with a vacuum pump. After that, it was dissolved in 25 μL of water, 75 μL of Glucose assay reagent (manufactured by Sigma-Aldrich) was added, and the solution was left to stand at 37° C. for 1 hour. Absorbance at 340 nm was then measured with a plate reader Cytation 5 (manufactured by Bio Tek Instruments) and the amount of glucose estimated.

[1] = test system: human ovarian cancer cells OVK18 and human malignant melanoma cells Mewo; experiment: Autophagy inducing effect on cultured cells (western blotting of autophagy-related proteins); type: cell-based; conditions: 24 hours treatment, western blotting
Protocol: Expression and phosphorylation patterns of autophagy-related proteins when human ovarian cancer cells or human malignant melanoma cells were treated with 4-trehalosamine and trehalose analog for 24 hours were determined by western blotting.
Human ovarian cancer cells OVK18 (obtained from RIKEN BRC) and human malignant melanoma cells Mewo (JCRB0066) were each inoculated on a 12-well microplate at 8×10^4 cells/mL/well and cultured in DMEM culture medium at 37° C. for 72 hours, after which they were treated with test samples.
The test samples used were the 4-trehalosamine (4TA) obtained in the <Purification process> of production example 10, trehalose (TRH), the IMCTA-Cn compounds obtained in synthesis examples 1 to 8, trehalose ester (TRH-Cn) (manufactured by Dojindo Laboratories), n-dodecyl-β-D-maltoside (DDM), maltose (MLT), sucrose (SCR), and rapamycin (RM). Untreated cells without addition of compounds were used as control.
In treatment with the test samples, in order to avoid contact of a compound with locally high concentration with cells, a half of the culture fluid in each well was taken, and a required amount of test sample was dissolved in it. After dissolving it sufficiently, it was returned to the original well and treated at 37° C. for 24 hours.
Subsequently, culture medium containing the test samples was removed, washed once with PBS, and dissolved with 2×SDS sample buffer not containing 2-mercaptoethanol (2-ME) or bromphenol blue (BPB). After measuring the protein concentration in the dissolved sample with a BCA protein assay kit (manufactured by Thermo Fisher Scientific), 2-ME and BPB were added and the sample was boiled for 5 minutes, which was used as a sample for western blotting.
The western blotting was performed in a similar manner to test example 4 except that anti-LC3 antibody, which is a marker for autophagy, anti-p62, anti-cathepsin D antibody, anti-Phospho-Akt (Ser473) antibody, anti-Akt antibody, anti-Phospho-p70 S6K (T389) antibody, and anti-p70 S6K antibody (all manufactured by Cell Signaling Technology) were used at 1/2,000 dilution as the primary antibodies in the method described in test example 4.
The results for human ovarian cancer cells OVK18 are shown in FIGS. 20A to 20C, and the results for human malignant melanoma cells Mewo are shown in FIGS. 20D to 20F. In FIGS. 20A, 20B, 20D, and 20E, “PCD” denotes precursors of cathepsin D and “CD-HC” denotes cathepsin D heavy chain.

SMILES | Numbers of live bacterial cells (relative numbers) (Bacillus subtilis 168) | protective effect on microorganisms, comparison (Bacillus subtilis 168; Bacillus subtilis, freeze-dried) | change in blood glucose level (blood glucose level) | expression of LC3-II (autophagy marker) [1]
N[C@H]1[C@H](O)[C@@H](O)[C@@H](O[C@H]2O[C@H](CO)[C@@H](O)[C@H](O)[C@H]2O)O[C@@H]1CO [4-trehalosamine] | 100 | stronger than when trehalose was added | no elevation in the blood glucose level was observed | elevated expression of LC3-II
OC[C@H]1O[C@@](CO)(O[C@H]2O[C@H](CO)[C@@H](O)[C@H](O)[C@H]2O)[C@@H](O)[C@@H]1O [sucrose] |  |  |  | expression of LC3-II was also observed
OC[C@H]1O[C@H](O[C@H]2O[C@H](CO)[C@@H](O)[C@H](O)[C@H]2O)[C@H](O)[C@@H](O)[C@@H]1O [trehalose, reference compound] | 10 |  | elevation in the blood glucose level was observed 30 minutes to 1 hour after administration | 
